How the values were obtained:
[1] = test system: scopolamine induced amnesy; experiment: passive avoidance test, scopolamine induced amnesia (intraperitoneal administration); format: in vivo, rat; conditions: scopolamine 1 mg/kg; for Avoid. time (sec.) After 24 h: re-test after 24 h, end-point 300 second
Description: (§1) The antiamnesic activity was tested by means of the classical passive avoidance test, with respect to the amnesy induced in the rat, by administration of scopolamine, or by means of electroconvulsive shock (ECS).For both the tests a shuttle-box was used of the Ugo Basile Company (Comerio, Varese), consisting of two compartments, one of which compartments was clear and the other one dark and fitted with an electrifiable floor.
(§2) In order to induce a passive avoidance response, the animal was placed onto a runner of the clear compartment, enlightened by a 60 watt lamp, for a 1 minute acclimatisation, whereafter a bulkhead was opened putting the runner in communication with the dark compartment, which the animal istinctively entered after a latency of a few seconds. The bulkhead was immediately shut and the animal got a 0.21 mA current for 2 second through the electrifiable floor. The animal was then removed and newly subjected to the test 24 h later, in order to verify the retention level of the acquired response of passive avoidance, measuring the latency required by the entry into the electrifiable compartment, with an end-point of 300 second.
(§3) All the tests were carried out under conditions of stratified randomization, using in each test session the same number of animals for the different experimental groups tested in parallel, and comprising, besides the groups treated with the product under test (test substances and reference substances having known activity), two separate groups of controls and precisely: blank controls (animals treated with placebo) and deconditioned controls (animals treated with placebo and subjected to amnesic treatment by means of scopolamine or of ECS).
(§4) The results obtained with the different dosages of the products subjected to screening and with the corresponding reference standards having a known activity, namely N(S)-3-(formyl-amino)-epsilon-caprolactam, N(4-phenylbutanoyl-hydroxy)prolyl-pyrrolidine and glycerophosphoryl-serine, were expressed as a percentage of antagonism of the amnesy (AA), defined according to the following formula: [formula] wherein the index of comparison IC, concerning treated animals (t) and blank controls (b), is defined by the formula: [formula] wherein: Nm = number of animals belonging to group m (blanks or treated animals); Nn = number of animals belonging to group n (deconditioned animals); Amn = binary function which can assume only the values +1, zero or - 1, depending on the fact that the latency time (seconds) of an animal of the m group (xm) be respectively higher than, equal to or lower than the latency time (seconds) of an animal of the n group (xn).
(§5) The summation Σ Amn i extended to all the pairs obtained combining each xm term with each xn term.
(§6) Normally the comparison index (IC) between blank controls and deconditioned controls is between 60% and 80% and the test was discarded when such index resulted to be lower than 40%.
The utilized rats were male C.r.l.: CD (50) BR (Charles River Italia), showing a weight of 150-170 g, after an acclimatisation time of a week, under standard conditions.
The animals got the products to be tested by intraperitoneal way and scopolamine bromhydrate (1 mg/kg) by subcutaneous way, respectively 45 and 30 minutes before being subjected to the previously described avoidance test.
As to the standard substances [GFS, N(S)-3-(formylamino)-epsilon-caprolactam and N(4-phenylbutanoylhydroxy)prolyl-pyrrolidine], the used dosage was 4x10⁻² mmol/kg, whereas for the products to be tested the used dosage was between 1x10⁻² and 12x10⁻² mmol/kg, with an intermediate dosage equimolar with respect to the one of the standards.

ECS engendered amnesy = experiment: passive avoidance test, electroconvulsive shock (ECS) induced amnesia; format: in vivo, rat; conditions: groups of 10
Description: as §1, §2, §3, §4, §5, §6
The animals got the products to be tested 30 minute before undergoing the previously described avoidance test.
In this series of experimental works the deconditioning treatment consists of an electroshock (square wave of 45 m, amplitude 0.6 ms, time 2 s and frequency 40 Hz), delivered by means of auricular electrodes, connected to an electrostimulator ECT/UNIT of the Ugo Basile Company (Comerio, Varese).
The used dosages were 8x10⁻² mmol/kg for the standard substances, therefore higher than the ones used in the preceeding test and this depends on a lower activity of the standard substances, previously ascertained in this test, in our experimental conditions.
The dosages of the products to be tested were correlatively comprised between 2x10⁻² and 24x10⁻² mmol/kg, with an intermediate dosage equimolar (8x10⁻² mmol/kg) with respect to the ones of the standard substances.

[2] = dose 8 x 10^-2 mmoli/kg i.p. 30' before the acquisition trial
[3] = dose 4 x 10^-2 mmoli/kg i.p. 30' before the acquisition trial
[4] = dose 12 x 10^-2 mmoli/kg i.p. 30' before the acquisition trial
[5] = dose 16 x 10^-2 mmoli/kg i.p. 30' before the acquisition trial

Compound | No.of amnesic rats/No. of rats tested ([1]; dose 4.10^-2 mmoli/kg i.p.) | Percent amnesia ([1]; dose 4.10^-2 mmoli/kg i.p.) [%] | Avoid. time (sec.) After 24 h ([1]; dose 4.10^-2 mmoli/kg i.p.) | Time taken to enter chamber (min) (ECS engendered amnesy; [2]) | No.of amnesic rats/No. of rats tested ([1]; dose 8.10^-2 mmoli/kg i.p.) | Percent amnesia ([1]; dose 8.10^-2 mmoli/kg i.p.) [%] | Avoid. time (sec.) After 24 h ([1]; dose 8.10^-2 mmoli/kg i.p.) | No.of amnesic rats/No. of rats tested ([1]; dose 12.10^-2 mmoli/kg i.p.) | Percent amnesia ([1]; dose 12.10^-2 mmoli/kg i.p.) [%] | Avoid. time (sec.) After 24 h ([1]; dose 12.10^-2 mmoli/kg i.p.) [s] | Time taken to enter chamber (min) (ECS engendered amnesy; [3]) | Time taken to enter chamber (min) (ECS engendered amnesy; [4]) | Time taken to enter chamber (min) (ECS engendered amnesy; [5]) | Time taken to enter chamber (min) (ECS engendered amnesy; dose 24 x 10^-2 mmoli/kg i.p. 30' before the acquisition trial)
N[C@@H](COP(=O)(O)OC[C@H](O)CO)C(=O)O [GFS, glycerophosphoryl-serine, reference compound] | 4/10 | 40 | 126,5 sec. | 0,236 min |  |  |  |  |  |  |  |  |  | 
COC(=O)CN1CCCC[C@H](NC(=O)[C@@H](N)COP(=O)(O)OC[C@@H](COC(C)=O)OC(C)=O)C1=O [MGS 1] | 2/10 | 20 | 243,5 sec. | 1,378 min | 1/10 | 10 | 266,6 sec. | 0/10 | 0 | 300 | 0,664 min | 1,916 min | 1,615 min | 
COC(=O)CN1CCCC[C@H](NC(=O)[C@@H](N)COP(=O)(O)OC[C@H](O)CO)C1=O [MGS 2] | 2/10 | 20 | 270 s | 1,418 min | 0/10 | 0 | 300 s | 0/10 | 0 | 300 | 0,557 min | 2,072 min | 1,777 min | 
N[C@@H](COP(=O)(O)OC[C@H](O)CO)C(=O)N[C@H]1CCCCNC1=O [MGS 4] |  |  |  | 0,466 min |  |  |  |  |  |  |  | 1,316 min |  | 1,883 min
O=CN[C@H]1CCCCNC1=O [N-Formylamino ε -caprolactame, N(S)-3-(formyl-amino)-epsilon-caprolactam, reference compound] | 4/10 | 40 | 72,5 sec. | 0,131 min |  |  |  |  |  |  |  |  |  | 
N(4-phenylbutanoyl-hydroxy)prolyl-pyrrolidine [Phenyl-butirryl prolyl-pirrolidine, reference compound] | 4/10 | 40 | 101,7 sec. | 0,213 min |  |  |  |  |  |  |  |  |  | 

Source: EP0557936A1, “Amidic derivatives of (R)-glycerophosphoryl-(S)-serine or of its diacyl derivative, process for their preparation and relative pharmaceutical compositions for the improvement of the learning processes” (MAGIS FARMACEUTICI S.p.A., priority 1992, dated 1993)
